Measurements taken from patent US20070258972A1, “Combination of a Histone Deacetylase Inhibitor with a Death Receptor Ligand” (priority 2003, published 2007).

Key:
SKW 6.4 and Jurkat cells = assay: Flow cytometry analysis of cell cycle status; assay type: cell-based, human; conditions: 24 hours
Method: The flow cytometric evaluation of the cell cycle status is performed according to a previously described method. The percentage of cells in the G1, S-phase, and G2/M phases are calculated using Multicycle software (Phoenix Flow Systems, San Diego, Calif.).

p21WAF1 promoter DNA = assay: ChIP assay, p21WAF1 promoter; assay type: cell-based, human; conditions: Jurkat and SKW 6.4 cells
Method: ChIP analysis was performed by a slight modification of a previously described method. Cells are incubated overnight at a density of 0.25×10^8 cells/ ml at 37° C. with 5% CO2. Next day, cells are cultured with 0, 50, 100 or 250 nM of LAQ 824 for 24 hours. Formaldehyde was then added to the cells to a final concentration of 1%, and the cells are gently shaken at room temperature for 10 minutes. Following this, the cells are pelleted, suspended in 1 mL of ice-cold PBS containing protease inhibitors (Complete, Boehringer Mannheim). Cells are again pelleted, re-suspended in 0.5 mL of SDS lysis buffer (1% SDS/1.0 mM EDTA/50 mM Tris.HCl, pH 8.1) and incubated on ice for 20 minutes. Lysates are sonicated with 15-second bursts. Debris was removed from samples by centrifugation for 20 minutes at 15,000×g at 4° C. An aliquot of the chromatin preparation (100 μL) was set aside and designated as Input Fraction. […] Immunoprecipitated DNA (both immunoprecipitation samples and Input) was recovered by phenol/chloroform extraction and ethanol precipitation and analyzed by PCR. […] The optimal reaction conditions for PCR are determined for each primer pair. […] The ratio between the immunoprecipitated DNA and Input DNA was calculated for each treatment and primer set. The fold increases after treatment with LAQ824 was calculated from the indicated ratio.

O=C(/C=C/c1ccc(CN(CCO)CCc2c[nH]c3ccccc23)cc1)NO [LAQ824, N-hydroxy-3-[4-[[(2-hydroxyethyl)[2-(1H-indol-3-yl)ethyl]-amino]methyl]phenyl]-2E-2-propenamide]
cells in the S phase of the cell cycle (SKW 6.4 and Jurkat cells): decline | percentage of cells in the G1 phase (SKW 6.4 and Jurkat cells): markedly increases | association of p21WAF1 promoter DNA with acetylated histones (p21WAF1 promoter DNA): increased
